# Test system: HepG2 cells
# Assay: Cell viability test (MTT assay) against oxidative stress induced by AA+iron
# Format: cell-based, human
# Settings: for hepatocellular protective effect (cell viability): AA+iron in HepG2, compared with genistein and luteolin at the same concentration, FIG. 1
# Experimental: HepG2 cell, a human-derived liver parenchymal cell line, was purchased from the American Type Culture Collection (ATCC, Rockville, MD, USA). Dulbecco's modified Eagle's medium (DMEM; Gibco) mixed with heat-treated 10% fetal bovine serum (FBS; Gibco), 100 units/ml of penicillin, and 100 μg/mL of streptomycin (Gibco) was used to culture HepG2 cells in an incubator maintained at 37° C. and 5% CO2 conditions. Cells were cultured in a 100 mm dish to a confluence of 80% or more, and subcultured twice a week at a ratio of 1:4. After serum-starvation for 12 hours, drugs were treated at different concentrations, and 1 hour later, 10 μM of AA was treated for 12 hours, and then treated with 5 μM of iron, and further cultured for 5 hours.
# Cell viability was measured by MTT assay. HepG2 cells were dispensed in 0.5 mL/well at a concentration of 2×10^5 cells/well in a 24-well plate, and then cultured for 24 hours. After serum was depleted for 12 hours, the drug was treated for 1 hour, and then 10 μM of AA was treated for 12 hours, and 5 μM of iron was added and cultured for 5 hours. Herein, 300 μL of MTT 0.5 mg/mL per well was treated and reacted at 37° C. for 2 hours. After carefully removing the medium and dissolving formazan crystals produced by reducing MTT with dimethylsulfoxide (DMSO), absorbance was measured at 570 nm using a microplate measuring instrument (Tecan Infinite M200 PRO, USA).
# In addition, in order to identify the cell viability according to the mixed use of icaritin and quercetin according to the results of FIG. 1, HepG2 cells were dispensed in 2×10^5 cells/well into a 24-well plate and cultured for 24 hours. After treatment for 1 hour at the concentrations shown in Table 1 below, 10 μM of AA was treated for 12 hours, and 5 μM of iron was added and cultured for 5 hours. […] The absorbance was measured at 570 nm using a microplate measuring instrument (Tecan Infinite M200 PRO, USA).
SMILES,hepatocellular protective effect (cell viability),"cell viability (HepG2, drug 1 h, then 10 μM AA 12 h + 5 μM iron 5 h, MTT, FIG. 2)"
"COc1ccc(-c2oc3c(CC=C(C)C)c(O)cc(O)c3c(=O)c2O)cc1 [Comparative Example 1, icaritin]",most significant hepatocellular protective effects,
"O=c1c(O)c(-c2ccc(O)c(O)c2)oc2cc(O)cc(O)c12 [Comparative Example 2, quercetin]",most significant hepatocellular protective effects,about 47.9±0.4%

# From patent publication US20230293483A1, “COMPOSITION FOR PREVENTING OR TREATING LIVER DISEASE, COMPRISING ICARITIN AND QUERCETIN” (INDUSTRY-ACADEMIC COORPERATION FOUNDATION DAEGU HAANY …, priority 2020, published 2023)
